Measured values taken from the NIST ThermoML archive (doi:10.1016/j.fluid.2017.06.022).
Several values for one entry are separate records, joined by “and”; a condition that tells them apart may be missing. Identical values can stand only once.

Test: xn = mol fraction of the nth substance listed
Settings: Liquid, Bellows volumetry

C=C [ethene] + Cc1ccccc1
Settings | mass density
325.3 K, 3200 kPa, x1 = 0.3067 | 729.1 kg/m3
325.3 K, 3400 kPa, x1 = 0.3067 | 730.3 kg/m3
325.3 K, 4100 kPa, x1 = 0.3067 | 731.4 kg/m3 and 730.8 kg/m3
325.3 K, 5500 kPa, x1 = 0.3067 | 733.1 kg/m3
325.3 K, 6900 kPa, x1 = 0.3067 | 734.9 kg/m3
325.3 K, 8500 kPa, x1 = 0.3067 | 737.2 kg/m3
325.3 K, 10200 kPa, x1 = 0.3067 | 738.9 kg/m3
325.3 K, 11600 kPa, x1 = 0.3067 | 740.7 kg/m3
325.3 K, 13400 kPa, x1 = 0.3067 | 743.1 kg/m3
326.2 K, 1270 kPa, x1 = 0.1194 | 779.8 kg/m3
326.2 K, 1340 kPa, x1 = 0.1194 | 781 kg/m3
326.2 K, 2020 kPa, x1 = 0.1194 | 781.6 kg/m3
326.2 K, 2570 kPa, x1 = 0.1194 | 782.2 kg/m3
326.2 K, 3390 kPa, x1 = 0.1194 | 783.5 kg/m3
326.2 K, 4760 kPa, x1 = 0.1194 | 784.7 kg/m3
326.2 K, 5790 kPa, x1 = 0.1194 | 785.4 kg/m3
326.2 K, 7090 kPa, x1 = 0.1194 | 787.2 kg/m3
326.2 K, 10310 kPa, x1 = 0.1194 | 790.4 kg/m3
326.2 K, 13590 kPa, x1 = 0.1194 | 793.6 kg/m3
348.7 K, 1490 kPa, x1 = 0.1194 | 759.4 kg/m3
348.7 K, 1560 kPa, x1 = 0.1194 | 759.4 kg/m3
348.7 K, 1970 kPa, x1 = 0.1194 | 760 kg/m3
348.7 K, 2380 kPa, x1 = 0.1194 | 760.5 kg/m3
348.7 K, 2860 kPa, x1 = 0.1194 | 761.7 kg/m3
348.7 K, 3400 kPa, x1 = 0.1194 | 762.3 kg/m3
348.7 K, 4090 kPa, x1 = 0.1194 | 763.5 kg/m3
348.7 K, 5150 kPa, x1 = 0.1194 | 764.7 kg/m3
348.7 K, 6420 kPa, x1 = 0.1194 | 765.8 kg/m3
348.7 K, 10040 kPa, x1 = 0.1194 | 770 kg/m3
348.7 K, 13810 kPa, x1 = 0.1194 | 774.9 kg/m3
348.7 K, 16900 kPa, x1 = 0.1194 | 777.9 kg/m3
348.7 K, 21130 kPa, x1 = 0.1194 | 782.2 kg/m3
348.7 K, 23670 kPa, x1 = 0.1194 | 785.4 kg/m3
348.7 K, 27850 kPa, x1 = 0.1194 | 789.1 kg/m3
348.7 K, 30800 kPa, x1 = 0.1194 | 792.3 kg/m3
348.7 K, 32790 kPa, x1 = 0.1194 | 793.6 kg/m3
351.6 K, 4100 kPa, x1 = 0.3067 | 706.4 kg/m3
351.6 K, 4800 kPa, x1 = 0.3067 | 707.5 kg/m3
351.6 K, 5500 kPa, x1 = 0.3067 | 708.6 kg/m3
351.6 K, 5600 kPa, x1 = 0.3067 | 708.6 kg/m3
351.6 K, 6200 kPa, x1 = 0.3067 | 709.7 kg/m3
351.6 K, 6900 kPa, x1 = 0.3067 | 710.7 kg/m3
351.6 K, 8600 kPa, x1 = 0.3067 | 713.5 kg/m3
351.6 K, 10400 kPa, x1 = 0.3067 | 716.2 kg/m3
351.6 K, 13700 kPa, x1 = 0.3067 | 721.2 kg/m3
351.6 K, 17000 kPa, x1 = 0.3067 | 725.7 kg/m3
351.6 K, 20300 kPa, x1 = 0.3067 | 730.3 kg/m3
